Experiments:
Type in all cases: in vivo
rice (Oryza sativa) = experiment: Test B flooded paddy test plant response
Procedure, shortened: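 Step one: raise plants to 2 leaves. Step two: flood pots 3 cm over the soil and apply compound into the water, keeping this depth. Step three: after 13–15 greenhouse days, score visually versus controls, 0–100, where 100 means complete control.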

soybean (Glycine max) = experiment: Test B pre-/postemergence plant response
Procedure, shortened: (§1)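 Seeds were sown and sprayed preemergence, while plants at 2 to 18 cm (1- to 4-leaf stage) got postemergence sprays. Compounds were formulated in a non-phytotoxic solvent mixture with surfactant. After 13 to 15 days in a greenhouse, injury was rated visually against untreated controls, 0 (no effect) to 100 (complete control).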

[1] = system: johnsongrass (Sorghum halepense); experiment: Test B pre-/postemergence plant response
Procedure, shortened: as §1

[2] = system: lambsquarters (Chenopodium album); experiment: Test B pre-/postemergence plant response
Procedure, shortened: as §1

[3] = system: goosegrass (Eleusine indica); experiment: Test B pre-/postemergence plant response
Procedure, shortened: as §1

[4] = system: large crabgrass (Digitaria sanguinalis); experiment: Test B pre-/postemergence plant response
Procedure, shortened: as §1

[5] = system: catchweed bedstraw (Galium aparine); experiment: Test B pre-/postemergence plant response; conditions: Preemergence, scale 0 to 100
Procedure, shortened: as §1

[6] = system: pigweed (Amaranthus retroflexus); experiment: Test B pre-/postemergence plant response
Procedure, shortened: as §1

[7] = system: bermudagrass (Cynodon dactylon); experiment: Test B pre-/postemergence plant response
Procedure, shortened: as §1

[8] = system: giant foxtail (Setaria faberii); experiment: Test B pre-/postemergence plant response
Procedure, shortened: as §1

kochia (Kochia scoparia) = experiment: Test B pre-/postemergence plant response
Procedure, shortened: as §1

[9] = system: Italian ryegrass (Lolium multiflorum); experiment: Test B pre-/postemergence plant response
Procedure, shortened: as §1

[10] = system: morningglory (Ipomoea coccinea); experiment: Test B pre-/postemergence plant response
Procedure, shortened: as §1

[11] = system: velvetleaf (Abutilon theophrasti); experiment: Test B pre-/postemergence plant response
Procedure, shortened: as §1

[12] = Postemergence, 31 g ai/ha, scale 0 to 100, 0 no effect, 100 complete control
[13] = Postemergence, 62 g ai/ha, scale 0 to 100
[14] = Postemergence, 125 g ai/ha, scale 0 to 100
[15] = Postemergence, 250 g ai/ha, scale 0 to 100
[16] = Preemergence, 31 g ai/ha, 0 to 100 scale, 0 no effect, 100 complete control
[17] = Preemergence, 62 g ai/ha, scale 0 to 100
[18] = Preemergence, 125 g ai/ha, scale 0 to 100
[19] = Preemergence, 250 g ai/ha, scale 0 to 100

Cc1cc(-c2ccc(Br)cc2)nn1-c1c(OC(=O)C2CC2)cnn(C)c1=O [Compound 5]
0: Plant response rating, Soybean (soybean (Glycine max); [12]) | Plant response rating, Soybean (soybean (Glycine max); [16]) | Plant response rating, Soybean (soybean (Glycine max); [17]) | Plant response rating, Soybean (soybean (Glycine max); [18]) | Plant response rating, Johnsongrass [1, 12] | Plant response rating, Johnsongrass [1, 13] | Plant response rating, Johnsongrass [1, 16] | Plant response rating, Lambsquarters [2, 12] | Plant response rating, Pigweed [6, 12] | Plant response rating, Pigweed [6, 13] | Plant response rating, Pigweed [6, 16] | Plant response rating, Pigweed [6, 17] | Plant response rating, Kochia (kochia (Kochia scoparia); [12]) | Plant response rating, Kochia (kochia (Kochia scoparia); [13]) | Plant response rating, Kochia (kochia (Kochia scoparia); [14]) | Plant response rating, Morningglory [10, 12] | Plant response rating, Morningglory [10, 13] | Plant response rating, Morningglory [10, 14] | Plant response rating, Morningglory [10, 15] | Plant response rating, Morningglory [10, 16] | Plant response rating, Morningglory [10, 17] | Plant response rating, Morningglory [10, 18] | Plant response rating, Morningglory [10, 19] | Plant response rating, Velvetleaf [11, 12] | Plant response rating, Velvetleaf [11, 13] | Plant response rating, Velvetleaf [11, 14] | Plant response rating, Velvetleaf [11, 16] | Plant response rating, Velvetleaf [11, 17] | Plant response rating, Velvetleaf [11, 18] | Plant response rating, Velvetleaf [11, 19]
50: Plant response rating, Soybean (soybean (Glycine max); [13]) | Plant response rating, Kochia (kochia (Kochia scoparia); [17]) | Plant response rating, Kochia (kochia (Kochia scoparia); [18])
98: Plant response rating, Bermudagrass [7, 16] | Plant response rating, Foxtail, Giant [8, 16]
60: Plant response rating, Rice (rice (Oryza sativa); Flood (flooded paddy test), 62 g ai/ha, scale 0 to 100, 0 no effect, 100 complete control) | Plant response rating, Kochia (kochia (Kochia scoparia); [19])
100: Plant response rating, Johnsongrass [1, 17] | Plant response rating, Johnsongrass [1, 18] | Plant response rating, Johnsongrass [1, 19] | Plant response rating, Lambsquarters [2, 19] | Plant response rating, Goosegrass [3, 14] | Plant response rating, Goosegrass [3, 15] | Plant response rating, Goosegrass [3, 17] | Plant response rating, Goosegrass [3, 18] | Plant response rating, Goosegrass [3, 19] | Plant response rating, Crabgrass, Large [4, 12] | Plant response rating, Crabgrass, Large [4, 13] | Plant response rating, Crabgrass, Large [4, 14] | Plant response rating, Crabgrass, Large [4, 15] | Plant response rating, Crabgrass, Large [4, 16] | Plant response rating, Crabgrass, Large [4, 17] | Plant response rating, Crabgrass, Large [4, 18] | Plant response rating, Crabgrass, Large [4, 19] | Plant response rating, Pigweed [6, 19] | Bermudagrass plant response rating ([7]; 250 g ai/ha, preemergence, 0-100 scale) | Plant response rating, Bermudagrass [7, 12] | Plant response rating, Bermudagrass [7, 13] | Plant response rating, Bermudagrass [7, 14] | Plant response rating, Bermudagrass [7, 15] | Plant response rating, Bermudagrass [7, 17] | Plant response rating, Bermudagrass [7, 18] | Plant response rating, Foxtail, Giant [8, 12] | Plant response rating, Foxtail, Giant [8, 13] | Plant response rating, Foxtail, Giant [8, 14] | Plant response rating, Foxtail, Giant [8, 15] | Plant response rating, Foxtail, Giant [8, 17] | Plant response rating, Foxtail, Giant [8, 18] | Plant response rating, Foxtail, Giant [8, 19] | Plant response rating, Ryegrass, Italian [9, 12] | Plant response rating, Ryegrass, Italian [9, 13] | Plant response rating, Ryegrass, Italian [9, 14] | Plant response rating, Ryegrass, Italian [9, 15] | Plant response rating, Ryegrass, Italian [9, 16] | Plant response rating, Ryegrass, Italian [9, 17] | Plant response rating, Ryegrass, Italian [9, 18] | Plant response rating, Ryegrass, Italian [9, 19]
90: Plant response rating, Johnsongrass [1, 15] | Plant response rating, Lambsquarters [2, 18] | Plant response rating, Galium ([5]; 250 g ai/ha)
80: Plant response rating, Rice (rice (Oryza sativa); Flood (flooded paddy test), 250 g ai/ha, scale 0 to 100, 0 no effect, 100 complete control) | Plant response rating, Lambsquarters [2, 14] | Plant response rating, Lambsquarters [2, 15] | Plant response rating, Galium ([5]; 125 g ai/ha) | Plant response rating, Pigweed [6, 18]
70: Plant response rating, Soybean (soybean (Glycine max); [15]) | Plant response rating, Kochia (kochia (Kochia scoparia); [15])
75: Plant response rating, Rice (rice (Oryza sativa); Flood (flooded paddy test), 125 g ai/ha, scale 0 to 100, 0 no effect, 100 complete control) | Plant response rating, Goosegrass [3, 16]
20: Plant response rating, Lambsquarters [2, 13]
10: Plant response rating, Velvetleaf [11, 15]
15: Plant response rating, Rice (rice (Oryza sativa); Flood, 31 g ai/ha, scale 0 to 100)
85: Plant response rating, Johnsongrass [1, 14]
95: Plant response rating, Goosegrass [3, 12] | Plant response rating, Goosegrass [3, 13]
65: Plant response rating, Soybean (soybean (Glycine max); [14])
45: Plant response rating, Pigweed [6, 14] | Plant response rating, Pigweed [6, 15]
